Literature values in patent US20240024221A1, “COMPOSITION FOR BRIGHTENING AND/OR WHITENING KERATIN MATERIALS” (L'OREAL, priority 2020, published 2024).

Settings: 25° C.; raw material table

| Compound | HLB |
| --- | --- |
| CCCCCCCCCCCC[N+](C)(C)CC(=O)[O-] [LAURYL BETAINE] | 15 |
| CCCCCCCCCCC(CCCCCCCC)CO[C@@H]1OC[C@@H](O)[C@H](O)[C@H]1O (some centres unmarked) [OCTYLDODECYL XYLOSIDE] | 7.3 |
| POLYGLYCERYL-2 OLEATE | 8 |
| POLYSORBATE 20 | 18.6 |
| SODIUM DILAURAMIDOGLUTAMIDE LYSINE | 12.6 |
